Holding throughout (assay): growth of human tumour cells (NCI), 48 h
Experiment [1] deals with DU-145 prostate.
For experiment [2], the system named is HS 578T breast.
The test system of experiment [3] is KM12 colon.
Experiment [4] deals with MDA-MB-231 breast.
The subject of experiment [5] is NCI-H460 lung.
Experiment [6] has as its system SK-OV-3 ovarian.
Experiment [7] concerns SW-620 colon.
Experiment [8] deals with TK-10 renal.
Experiment [9] relates to UACC-257 melanoma.
In experiment [10] the test system is UO-31 renal.

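Where inhibition never reached the appropriate level, the endpoint shown equals the highest concentration tested. Otherwise, values were interpolated linearly from a five-concentration, 48-hour dose response in 96-well plates. GI50 is the concentration that inhibits growth by half. TGI is the concentration that stops growth completely.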

On to `c1ccc2c(c1)c1ccccc1c1ccccc21`, for which the GI50 in experiment [1] is more than 100 µM; in experiment [2], more than 100 µM; in [3] it was more than 100 µM; in experiment [4], 87.2 µM; in experiment [5], more than 100 µM; in [6], more than 100 µM. The GI50 in experiment [7], in experiment [8], in experiment [9] and in experiment [10] was more than 100 µM throughout. Further, the TGI in [1], in experiment [2], in [3], in [4], in [5] and in experiment [6] was more than 100 µM each time. The TGI in experiment [7], in experiment [8], in experiment [9] and in experiment [10] was more than 100 µM each time.
Consider `Nc1c(C(=O)Nc2ccccc2Cl)sc2nc3c(cc12)C(=O)CCC3`, for which the GI50 in experiment [1] was 10.3 µM; in experiment [2] it was 3.56 µM; in [3] it was 0.592 µM; in experiment [4], 6.97 µM; in [5], 0.673 µM; in experiment [6], 0.782 µM. The GI50 in experiment [7] is 0.556 µM; in experiment [8] it was 78.6 µM; in [9], 1.62 µM; in [10], more than 100 µM. Further, the TGI is more than 100 µM in experiment [1]; more than 100 µM in [2]; more than 100 µM in experiment [3]; more than 100 µM in experiment [4]; more than 100 µM in [5]; more than 50.5 µM in [6]. The TGI in experiment [7], in experiment [8], in experiment [9] and in [10] was more than 100 µM throughout.
In the case of `Clc1nc(Cl)c2ncn(Cc3ccccc3Cn3cnc4c(Cl)nc(Cl)nc43)c2n1`, the GI50 is 1.21 µM in experiment [1]; 2.87 µM in [2]; 2.23 µM in [3]; 1.55 µM in experiment [4]; 3.07 µM in experiment [5]; 15.3 µM in experiment [6]. In addition, the GI50 was 1.67 µM in experiment [7], 2.93 µM in [8], 9.62 µM in experiment [9] and 1.91 µM in [10]. Besides, the TGI in [1] came to 2.65 µM; in experiment [2], 9.39 µM; in experiment [3], 5.37 µM; in [4], 3.01 µM; in experiment [5], 11.7 µM; in experiment [6], 33.7 µM. For the same molecule, the TGI in experiment [7] turned out to be 3.33 µM; in [8], 11 µM; in experiment [9], 25.4 µM; in experiment [10], 3.85 µM.
With `Cc1sc2c(c1C)C(c1ccc(Cl)cc1)=N[C@@H](CC(=O)Nc1ccc(OCCOCCOCCOCCNc3cccc4c3C(=O)N(C3CCC(=O)NC3=O)C4=O)cc1)c1nnc(C)n1-2` (some centres undefined), the GI50 in experiment [1] is more than 59.3 µM; in [2] it was less than 0.0178 µM; in [4] it was less than 0.0175 µM; in experiment [5], 2.13 µM; in experiment [6], 0.306 µM; in experiment [7], 0.0787 µM. The GI50 in [8] was 0.189 µM; in experiment [9] it was 10.6 µM; in experiment [10] it was 0.28 µM. The TGI in experiment [1] is more than 100 µM; in [2], more than 100 µM; in experiment [3], more than 100 µM; in experiment [4], more than 83.8 µM; in experiment [5], more than 100 µM; in [6], more than 31.6 µM. Moreover, the TGI in experiment [7] was more than 100 µM; in experiment [8], more than 43.7 µM; in experiment [9], more than 100 µM; in [10] it was more than 100 µM.
`O=C(NNc1cnccn1)c1nc2cc(F)ccc2n2cccc12`: the GI50 in experiment [1] is 0.745 µM; in experiment [2], 2.83 µM; in [3], 0.509 µM; in [4], 0.597 µM; in [5] it was 0.403 µM; in [6] it was 0.522 µM. Also, the GI50 is 0.397 µM in experiment [7], 0.647 µM in experiment [8], 0.515 µM in experiment [9] and 0.261 µM in experiment [10]. Further, the TGI in [1], in experiment [2], in [3], in experiment [4], in experiment [5] and in experiment [6] was more than 100 µM throughout. Also, the TGI in experiment [7], in experiment [8], in experiment [9] and in [10] was more than 100 µM in each case.
Consider `O=C1c2ccccc2C(=O)c2c(NCCN=Cc3ccccc3O)cccc21`, for which the GI50 is 2.22 µM in experiment [1]; 1.72 µM in experiment [2]; 2.93 µM in experiment [3]; 7.91 µM in [4]; 2.18 µM in experiment [5]; 3.54 µM in experiment [6]. For the same molecule, the GI50 in [7] is 2.14 µM; in experiment [8], 1.99 µM; in [9] it was 4.84 µM; in experiment [10], 2.51 µM. Further, the TGI was 7.66 µM in experiment [1]; 4.88 µM in experiment [2]; 8.37 µM in [3]; more than 80.6 µM in experiment [4]; 6.91 µM in experiment [5]; more than 48.2 µM in experiment [6]. The TGI in experiment [7] stood at 7.07 µM; in experiment [8] it was 6.17 µM; in experiment [9], 13.4 µM; in [10] it was 11 µM.
`COc1cc2c3c(n(CCCN(C)CCO)c(=O)c2cc1OC)-c1cc2c(cc1C3=O)OCO2`: the GI50 in experiment [1] is 0.816 µM; in [2] it was more than 61.3 µM; in experiment [3], 11.4 µM; in [4], 14 µM; in [5], 1.89 µM; in experiment [6], 11 µM. Besides, the GI50 in experiment [7] is 0.879 µM; in experiment [8], 81.7 µM; in [9], more than 62.6 µM; in [10], 3.41 µM. Further, the TGI in experiment [1] is more than 100 µM; in experiment [2], more than 100 µM; in [3], 45.7 µM; in experiment [4], 49.9 µM; in experiment [5], more than 100 µM; in experiment [6] it was more than 100 µM. Besides, the TGI in experiment [7] is more than 55.2 µM; in experiment [8], more than 100 µM; in [9] it was more than 100 µM; in [10], more than 57.9 µM.
Consider `NCCCn1c2c(c3ccccc3c1=O)C(=O)c1ccccc1-2`, for which the GI50 in experiment [1] was 0.118 µM; in experiment [2], 0.556 µM; in experiment [3], 0.124 µM; in experiment [4], 0.177 µM; in [5] it was 0.0647 µM; in experiment [6], 0.133 µM. Also, the GI50 in experiment [7] was 0.0713 µM; in experiment [8], 0.425 µM; in experiment [9], 0.544 µM; in [10] it was 0.248 µM. Further, the TGI in experiment [1] was found to be 3.71 µM; in [2], 6.25 µM; in [3] it was 2.65 µM; in [4], 0.736 µM; in experiment [5], 9.22 µM; in [6], 1.94 µM. The TGI in experiment [7] worked out at 5.83 µM; in experiment [8], 4.19 µM; in experiment [9], 2.19 µM; in experiment [10], 16.5 µM.
Consider `COc1ccc2c(c1)C(C)Cc1c(ncnc1-n1cnc3ccccc31)N2C` (centres undefined), for which the GI50 in experiment [1] was 0.439 µM; in experiment [2], 0.535 µM; in experiment [3], 0.444 µM; in [4] it was 1.04 µM; in [5], 0.397 µM; in experiment [6] it was 0.429 µM. The GI50 was 0.379 µM in experiment [7], 0.793 µM in [8], 13.6 µM in experiment [9] and 0.72 µM in experiment [10]. For the same molecule, the TGI in experiment [1] is 10.3 µM; in experiment [2], 37.2 µM; in experiment [3], 12.1 µM; in [4], 4.35 µM; in [5] it was 11.4 µM; in [6], 16 µM. The TGI in experiment [7] stood at 17.8 µM; in experiment [8] it was 37.1 µM; in experiment [9], 26.6 µM; in experiment [10] it was 19.2 µM.
As to `c1ccc(NCCSc2nc3ccccc3s2)cc1`, the TGI in experiment [1], in [2], in experiment [3], in [4], in [5] and in [6] was more than 100 µM throughout. Moreover, the TGI in [7] was more than 100 µM; in experiment [8], 77.4 µM; in [9] it was 77 µM; in experiment [10] it was more than 100 µM.
Take `COc1ccc(-c2nn(-c3cccc(Cl)c3)cc2-c2nc(N)[nH]c(=O)c2C#N)cc1`: the GI50 was 17.9 µM in [1]; 3.55 µM in experiment [2]; 3.84 µM in [3]; 3.39 µM in experiment [4]; 6 µM in [5]; 6.56 µM in experiment [6]. For the same molecule, the GI50 in experiment [7] is 4.38 µM; in experiment [8], 13.5 µM; in [9], 5.69 µM; in [10], 2.94 µM. Moreover, the TGI was 70.1 µM in [1]; 40.3 µM in experiment [2]; 15.2 µM in experiment [3]; 53.3 µM in [4]; 27.7 µM in [5]; 30.7 µM in experiment [6]. The TGI in [7] stood at 34.2 µM; in experiment [8], 53.9 µM; in experiment [9], 47.3 µM; in experiment [10] it was 47.8 µM.
Regarding `COc1ccc(-c2cc(Nc3ccnc(N4CCOCC4)n3)on2)cc1`, the GI50 is 0.302 µM in [1]; 0.303 µM in experiment [2]; 0.0893 µM in experiment [3]; 0.339 µM in experiment [4]; 0.24 µM in experiment [5]; 0.351 µM in experiment [6]. The GI50 in [7] is 0.0914 µM; in [8] it was 10.9 µM; in experiment [9], 1.48 µM; in experiment [10] it was 0.742 µM. Besides, the TGI was 13.4 µM in experiment [1]; 9.8 µM in experiment [2]; 12.3 µM in experiment [3]; 22.5 µM in experiment [4]; 10.4 µM in experiment [5]; 22.5 µM in experiment [6]. For the same molecule, the TGI came to 18.5 µM in experiment [7], 24.9 µM in [8], 11.4 µM in experiment [9] and 13.8 µM in [10].
Regarding `Cc1ccc2occ/c(=N\Nc3ccccc3)c2c1`, the TGI in [1] is more than 100 µM; in experiment [2], more than 100 µM; in experiment [3] it was 78.5 µM; in experiment [4], more than 100 µM; in [5], more than 100 µM; in [6], more than 100 µM. Further, the TGI in [7], in experiment [8], in experiment [9] and in [10] was more than 100 µM in each case.
For `CCOC(=O)C1=C(N)Oc2c(sc3c(C)cccc23)C1c1ccc(F)cc1` (centres undefined), the GI50 in experiment [1] is 0.849 µM; in experiment [2], 0.472 µM; in experiment [3] it was 0.464 µM; in experiment [4] it was 2.37 µM; in experiment [5], 0.415 µM; in [6], 11.5 µM. For the same molecule, the GI50 in experiment [7] was 0.453 µM; in experiment [8] it was 13.2 µM; in experiment [9], 12.6 µM; in [10], 0.583 µM. Further, the TGI in experiment [1] stood at 13.5 µM; in experiment [2] it was 7.17 µM; in [3] it was 13.6 µM; in [4], 16 µM; in experiment [5] it was 11 µM; in experiment [6], 32.3 µM. Also, the TGI in [7] was determined as 15.9 µM; in [8], 29.5 µM; in experiment [9], 27.7 µM; in [10] it was 18.3 µM.
As to `NCCCOc1cc(Cl)ccc1NC(=O)c1cc2ccccc2cc1OCCCN`, the GI50 is 1.58 µM in [1]; 1.59 µM in [2]; 1.48 µM in [3]; 1.19 µM in experiment [4]; 1.68 µM in [5]; 1.4 µM in experiment [6]. The GI50 is 1.58 µM in experiment [7], 1.73 µM in experiment [8], 2.02 µM in [9] and 1.2 µM in experiment [10]. Moreover, the TGI in experiment [1] worked out at 2.95 µM; in experiment [2], 3.57 µM; in experiment [3], 2.91 µM; in experiment [4], 2.69 µM; in experiment [5], 3.21 µM; in [6] it was 2.72 µM. Besides, the TGI in experiment [7] was 3.06 µM; in experiment [8], 3.38 µM; in experiment [9], 3.69 µM; in [10], 2.65 µM.

The values above are taken from PubChem BioAssay (NCI).
